The values below come from US20050228041A1, “Protective and therapeutic uses for tocotrienols” (priority 2003, published 2005).

The subject of this experiment is primary rat immature cortical neurons. Briefly: Neurotoxin-induced loss of viability of primary immature cortical neurons (LDH leakage). Particulars: glutamate 10 mM, 24 h; for protection against loss of neuronal viability by neurotoxins: L-homocysteic acid 1 mM, BSO 0.15 mM, BSO + arachidonic acid 0.05 mM, α-tocotrienol (nM) 5 min before. Format: cell-based. On the procedure: Referring to FIG. 1, primary rat immature cortical neurons (A-C) or HT4 (D) were either treated or not with α-tocotrienol (as indicated) for 5 min and challenged with either glutamate (10 mM; A); L-homocysteic acid (1 mM; B); or buthionine sulfoximine (0.15 mM; BSO) for 24 h. […] Cells were counted at 12, 24 and 36 h after glutamate challenge.
First, we tested for the involvement of 12-LOX in the execution of glutamate-induced death in our model. We started by using the 12-LOX specific inhibitor baicalein or BL15. Referring to FIG. 3, HT4 neurons (A) were either treated or not with a-tocotrienol (250 nM) or […] (2.5 μM, 12-lipoxygenase inhibitor) for 5 min and then challenged with glutamate (10 mM). Cell viability was determined using propidium iodide (PI) exclusion flow cytometry assay. PI−=live; PI+=dead. Rat primary immature cortical neurons (B-D) were either treated or not with α-tocotrienol (100 nM) or BL15 (2.5 μM) for 5 min and challenged either with glutamate (10 mM; B); L-homocysteic acid (1 mM; C) or buthionine sulfoximine (0.15 mM; BSO; D) for 24 h. Arachidonic acid, 50 μM for 24h. BL15, Baicalein 5,6,7-trihydroxy-flavone.
Cell culture. Mouse hippocampal HT4 cells, were grown in Dulbecco's Modified Eagle Medium supplemented with 10% fetal calf serum, penicillin (100 U/ml) and streptomycin (100 μg/ml) at 37° C. in a humidified atmosphere containing 95% air and 5% CO2. HT4 cells were provided by Dr. D. E. Koshland Jr. (University of California at Berkeley) (Sen et al., 2000). Primary cortical neurons. Cells were isolated from the cerebral cortex of rat feti (Sprague Dawley; day 17 of gestation) or mouse feti (C57BL/6 mice, day 14 of gestation) as described (Murphy et al., 1990). For 12-LOX knockout studies, neurons were isolated from the feti of B6.129S2-Alox15^tm1Fun (Jackson Laboratory, […].). After isolation from the brain, cells were counted and seeded in culture plates at a density of 2-3×10^6 cells per 35 mm plate (Murphy et al., 1990). Cells were grown in Minimal Essential Medium (MEM) supplemented with 10% heat-inactivated fetal bovine serum, 40 μM cystine and antibiotics (100 μg/ml streptomycin, 100 units/ml penicillin, 0.25 μg/ml amphotericin). Cultures were maintained at 37° C. in 5% CO2 and 95% air in a humidified incubator. All experiments were carried out 24 h after plating.
Treatment with neurotoxic agents. Immediately before experiments, culture media was replaced with fresh medium supplemented with serum and antibiotics. Glutamate (10 mM) was added to the media as aqueous solution (Han et al., 1997a; Sen et al., 2000; Tirosh et al., 2000). […] Other agents used to induce death in neuronal cells have been described in the pertinent figure legends.
Vitamin E treatment. Stock solutions (10^3X of working concentration) of α-tocotrienol was prepared in ethanol. […]
Determination of cell viability. Viability of HT4 cells was determined using propidium iodide exclusion assay using the flow cytometer as described by us previously (Sen et al., 2000; Tirosh et al., 2000). Because primary neuronal cultures tend to aggregate during flow cytometry, the viability of these cells was assessed by measuring lactate dehydrogenase (LDH) leakage (Han et al., 1997a) from cells to media 24 h following glutamate treatment using in vitro toxicology assay kit from Sigma Chemical Co. (St. Louis, Mo., USA). […]
On the technique in general: Release of lactate dehydrogenase indicates damage to the cell membrane.

For the compound `CC(C)=CCC/C(C)=C/CC/C(C)=C/CC[C@]1(C)CCc2c(C)c(O)c(C)c(C)c2O1` [α-tocotrienol], the “protection against loss of neuronal viability by neurotoxins” value is “protects”. For the same compound, where the note is “α-tocotrienol 100 nM or BL15 2.5 μM 5 min before”, the “protection against glutamate-induced death of primary neurons” value is on record as “protected neurons against glutamate challenge”. The “protection against loss of neuronal viability by neurotoxins” value (listed as α-Tocotrienol) is given as “total protection”.
